# Assays:
# p70S6K = p70S6K (Homo sapiens (Human), UniProt P23443); experiment: Carna kinome panel; format: biochemical; settings: read-out: % Inhibition at 10 μM of the test compound
# FYN(isoform b) = FYN(isoform b) (Homo sapiens (Human), UniProt P06241); experiment: Carna kinome panel; format: biochemical; settings: read-out: % Inhibition at 10 μM of the test compound
# AKT3 = AKT3 (Homo sapiens (Human), UniProt Q9Y243); experiment: Carna kinome panel; format: biochemical; settings: read-out: % Inhibition at 10 μM of the test compound
# MST2 = MST2 (Homo sapiens (Human), UniProt Q13188); experiment: Carna kinome panel; format: biochemical; settings: read-out: % Inhibition at 10 μM of the test compound
# ROCK2 = ROCK2 (Homo sapiens (Human), UniProt O75116); experiment: Carna kinome panel; format: biochemical; settings: read-out: % Inhibition at 10 μM of the test compound
# IKKε = IKKε (Homo sapiens (Human), UniProt Q14164); experiment: Carna kinome panel; format: biochemical; settings: read-out: % Inhibition at 10 μM of the test compound
# KDR = KDR (Homo sapiens (Human), UniProt P35968); experiment: Carna kinome panel; format: biochemical; settings: read-out: % Inhibition at 10 μM of the test compound
# EPHB4 = EPHB4 (Homo sapiens (Human), UniProt P54760); experiment: Carna kinome panel; format: biochemical; settings: read-out: % Inhibition at 10 μM of the test compound
# CK1γ3 = CK1γ3 (Homo sapiens (Human), UniProt Q9Y6M4); experiment: Carna kinome panel; format: biochemical; settings: read-out: % Inhibition at 10 μM of the test compound
# MRCKα = MRCKα (Homo sapiens (Human), UniProt Q5VT25); experiment: Carna kinome panel; format: biochemical; settings: read-out: % Inhibition at 10 μM of the test compound
# EPHA5 = EPHA5 (Homo sapiens (Human), UniProt P54756); experiment: Carna kinome panel; format: biochemical; settings: read-out: % Inhibition at 10 μM of the test compound
# NEK6 = NEK6 (Homo sapiens (Human), UniProt Q9HC98); experiment: Carna kinome panel; format: biochemical; settings: read-out: % Inhibition at 10 μM of the test compound
# MAP2K1_Cascade = experiment: Carna kinome panel; format: biochemical
# Method: (§1) Briefly, a selection of compounds was screened against a panel of kinases at a single concentration of 10 μM. […] This was completed using one of two assays, depending on the kinase being examined: 1) IMAP Assay. A solution of 4× inhibitor, 4× substrate/ATP/metal solution and 2× kinase solution was prepared with assay buffer (20 mM HEPES, 0.01% Tween-20, 2 mM DTT, pH 7.4) and mixed, then incubated in 384-well black plates for 1 hour at room temperature. The IMAP binding reagent (IMAP Screening Express kit; Molecular Devices) was added to each well and incubated for 30 minutes. […] 2) Off-Chip Mobility Shift Assay (MSA). A solution of 4× inhibitor, 4× substrate/ATP/metal solution and 2× kinase solution was prepared with assay buffer (20 mM HEPES, 0.01% Triton X-100, 2 mM DTT, pH 7.5) and mixed, then incubated in 384-well plates for 1 or 5 hours depending on the kinase, at room temperature. Termination buffer (QuickScout Screening assist MSA; Carna Biosciences) was added to each well. The entire reaction mixture was then applied to a LabChip3000 system (Caliper Life Science), and the product and substrate peptide peaks were separated and quantified. […] The entire reaction mixture was then applied to a LabChip3000 system (Caliper Life Science), and the product and substrate peptide peaks were separated and quantified.
# NPM1-ALK = NPM1-ALK (Homo sapiens (Human), UniProt P06748+Q9UM73); experiment: Carna kinome panel; format: biochemical; settings: read-out: % Inhibition at 10 μM of the test compound
# MET = MET (Homo sapiens (Human), UniProt P08581); experiment: Carna kinome panel; format: biochemical; settings: read-out: % Inhibition at 10 μM of the test compound
# DAPK1 = DAPK1 (Homo sapiens (Human), UniProt P53355); experiment: Carna kinome panel; format: biochemical; settings: read-out: % Inhibition at 10 μM of the test compound
# Erk5 = Erk5 (Homo sapiens (Human), UniProt Q13164); experiment: Carna kinome panel; format: biochemical; settings: read-out: % Inhibition at 10 μM of the test compound
# p38α = p38α (Homo sapiens (Human), UniProt Q16539); experiment: Carna kinome panel; format: biochemical; settings: read-out: % Inhibition at 10 μM of the test compound
# MARK1 = MARK1 (Homo sapiens (Human), UniProt Q9P0L2); experiment: Carna kinome panel; format: biochemical; settings: read-out: % Inhibition at 10 μM of the test compound
# PAK4 = PAK4 (Homo sapiens (Human), UniProt O96013); experiment: Carna kinome panel; format: biochemical; settings: read-out: % Inhibition at 10 μM of the test compound
# TYRO3 = TYRO3 (Homo sapiens (Human), UniProt Q06418); experiment: Carna kinome panel; format: biochemical; settings: read-out: % Inhibition at 10 μM of the test compound
# PGK = PGK (Homo sapiens (Human), UniProt Q13976); experiment: Carna kinome panel; format: biochemical; settings: read-out: % Inhibition at 10 μM of the test compound
# PEK = PEK (Homo sapiens (Human), UniProt Q9NZJ5); experiment: Carna kinome panel; format: biochemical; settings: read-out: % Inhibition at 10 μM of the test compound
# ALK(F1174L) = ALK(F1174L) (Homo sapiens (Human), UniProt Q9UM73, F1174L); experiment: Carna kinome panel; format: biochemical; settings: read-out: % Inhibition at 10 μM of the test compound
# MAP3K1_Cascade = experiment: Carna kinome panel; format: biochemical
# Method: as §1
# YES(T348I) = YES(T348I) (Homo sapiens (Human), UniProt P07947, T348I); experiment: Carna kinome panel; format: biochemical; settings: read-out: % Inhibition at 10 μM of the test compound
# PDHK4 = PDHK4 (Homo sapiens (Human), UniProt Q16654); experiment: Carna kinome panel; format: biochemical; settings: read-out: % Inhibition at 10 μM of the test compound
# PKACγ = PKACγ (Homo sapiens (Human), UniProt P22612); experiment: Carna kinome panel; format: biochemical; settings: read-out: % Inhibition at 10 μM of the test compound
# CDK5/p25 = CDK5/p25 (Homo sapiens (Human), UniProt Q00535); experiment: Carna kinome panel; format: biochemical; settings: read-out: % Inhibition at 10 μM of the test compound
# DDR1 = DDR1 (Homo sapiens (Human), UniProt Q08345); experiment: Carna kinome panel; format: biochemical; settings: read-out: % Inhibition at 10 μM of the test compound
# JNK2 = JNK2 (Homo sapiens (Human), UniProt P45984); experiment: Carna kinome panel; format: biochemical; settings: read-out: % Inhibition at 10 μM of the test compound
# LCK = LCK (Homo sapiens (Human), UniProt P06239); experiment: Carna kinome panel; format: biochemical; settings: read-out: % Inhibition at 10 μM of the test compound
# CAMK1α = CAMK1α (Homo sapiens (Human), UniProt Q14012); experiment: Carna kinome panel; format: biochemical; settings: read-out: % Inhibition at 10 μM of the test compound
# INSR = INSR (Homo sapiens (Human), UniProt P06213); experiment: Carna kinome panel; format: biochemical; settings: read-out: % Inhibition at 10 μM of the test compound
# CLK1 = CLK1 (Homo sapiens (Human), UniProt P49759); experiment: Carna kinome panel; format: biochemical; settings: read-out: % Inhibition at 10 μM of the test compound
# GSK3β = GSK3β (Homo sapiens (Human), UniProt P49841); experiment: Carna kinome panel; format: biochemical
# Method: (§2) A selection of compounds was screened against a selected panel of kinases based on single point inhibitory ability to determine absolute inhibitory activity, leading to selectivity measurements. The assay utilized was identical to that of the single point inhibitory activity determination (MSA) but run in dose response. A solution of 4× inhibitor (5 μL), 4× substrate/ATP Metal solution (5 μL), and 2× Kinase solution (10 μL) was prepared with assay buffer (20 mM HEPES, 0.01% Triton X-100, 2 mM DTT, pH 7.5) and mixed/incubated in 384 well plates for 1 or 5 hours depending on the kinase, at room temperature. A solution of termination buffer (QuickScout Screening assist MSA; Carna Biosciences) (60 μL) was added to each well. The entire reaction mixture was then applied to a LabChip3000 system (Caliper Life Science) and the product and substrate peptide peaks were separated and quantified.
# (§3) Briefly, a selection of compounds was screened against a panel of kinases at a single concentration of 10 μM. […] The entire reaction mixture was then applied to a LabChip3000 system (Caliper Life Science), and the product and substrate peptide peaks were separated and quantified. […] The entire reaction mixture was then applied to a LabChip3000 system (Caliper Life Science), and the product and substrate peptide peaks were separated and quantified.
# GSK3α = GSK3α (Homo sapiens (Human), UniProt P49840); experiment: biochemical
# Method: as §2, §3
# SGK2 = SGK2 (Homo sapiens (Human), UniProt Q9HBY8); experiment: Carna kinome panel; format: biochemical; settings: read-out: % Inhibition at 10 μM of the test compound
# PKD3 = PKD3 (Homo sapiens (Human), UniProt O94806); experiment: Carna kinome panel; format: biochemical; settings: read-out: % Inhibition at 10 μM of the test compound
# NEK2 = NEK2 (Homo sapiens (Human), UniProt P51955); experiment: Carna kinome panel; format: biochemical; settings: read-out: % Inhibition at 10 μM of the test compound
# KIT(D816E) = KIT(D816E) (Homo sapiens (Human), UniProt P10721, D816E); experiment: Carna kinome panel; format: biochemical; settings: read-out: % Inhibition at 10 μM of the test compound
# [1] = read-out: % Inhibition at 10 μM of the test compound
# Sequence of GSK3β (P49841 whole entry): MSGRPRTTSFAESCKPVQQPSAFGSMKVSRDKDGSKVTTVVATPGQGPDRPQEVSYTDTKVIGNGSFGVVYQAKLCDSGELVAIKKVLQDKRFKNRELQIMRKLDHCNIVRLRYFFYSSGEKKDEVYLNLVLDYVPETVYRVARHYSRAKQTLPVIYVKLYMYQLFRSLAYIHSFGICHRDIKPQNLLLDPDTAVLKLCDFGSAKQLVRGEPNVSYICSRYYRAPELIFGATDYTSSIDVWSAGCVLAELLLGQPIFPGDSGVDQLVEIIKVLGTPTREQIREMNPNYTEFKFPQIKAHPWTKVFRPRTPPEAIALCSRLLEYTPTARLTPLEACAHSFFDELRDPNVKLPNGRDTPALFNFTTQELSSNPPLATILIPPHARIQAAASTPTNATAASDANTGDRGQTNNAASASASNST
# Sequence of GSK3α (P49840 whole entry): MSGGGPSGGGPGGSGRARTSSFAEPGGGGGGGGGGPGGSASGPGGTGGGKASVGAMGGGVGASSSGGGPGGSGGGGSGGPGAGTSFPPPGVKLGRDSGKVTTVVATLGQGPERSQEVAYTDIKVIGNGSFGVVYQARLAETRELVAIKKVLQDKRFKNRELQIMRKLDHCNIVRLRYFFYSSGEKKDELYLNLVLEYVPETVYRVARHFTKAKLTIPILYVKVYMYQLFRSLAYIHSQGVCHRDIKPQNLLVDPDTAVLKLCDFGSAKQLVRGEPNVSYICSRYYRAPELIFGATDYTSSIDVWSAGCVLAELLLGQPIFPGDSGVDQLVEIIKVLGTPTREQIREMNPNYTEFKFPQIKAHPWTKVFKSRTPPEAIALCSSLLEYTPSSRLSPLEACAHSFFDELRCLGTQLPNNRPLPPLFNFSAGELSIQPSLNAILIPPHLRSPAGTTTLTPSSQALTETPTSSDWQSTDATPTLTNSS
# Sequence of SGK2 (Q9HBY8 whole entry): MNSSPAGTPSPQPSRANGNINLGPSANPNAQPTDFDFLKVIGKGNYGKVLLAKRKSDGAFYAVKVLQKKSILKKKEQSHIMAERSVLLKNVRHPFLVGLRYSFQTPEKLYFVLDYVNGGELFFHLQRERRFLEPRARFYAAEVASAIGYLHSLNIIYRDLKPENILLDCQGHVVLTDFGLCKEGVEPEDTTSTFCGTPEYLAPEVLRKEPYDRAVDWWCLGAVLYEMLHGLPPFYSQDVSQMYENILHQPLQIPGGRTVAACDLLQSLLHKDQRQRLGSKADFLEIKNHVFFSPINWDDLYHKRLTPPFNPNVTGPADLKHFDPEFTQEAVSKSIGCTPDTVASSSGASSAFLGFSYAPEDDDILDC
# Sequence of ALK(F1174L) (Q9UM73 19-1620 F1174L): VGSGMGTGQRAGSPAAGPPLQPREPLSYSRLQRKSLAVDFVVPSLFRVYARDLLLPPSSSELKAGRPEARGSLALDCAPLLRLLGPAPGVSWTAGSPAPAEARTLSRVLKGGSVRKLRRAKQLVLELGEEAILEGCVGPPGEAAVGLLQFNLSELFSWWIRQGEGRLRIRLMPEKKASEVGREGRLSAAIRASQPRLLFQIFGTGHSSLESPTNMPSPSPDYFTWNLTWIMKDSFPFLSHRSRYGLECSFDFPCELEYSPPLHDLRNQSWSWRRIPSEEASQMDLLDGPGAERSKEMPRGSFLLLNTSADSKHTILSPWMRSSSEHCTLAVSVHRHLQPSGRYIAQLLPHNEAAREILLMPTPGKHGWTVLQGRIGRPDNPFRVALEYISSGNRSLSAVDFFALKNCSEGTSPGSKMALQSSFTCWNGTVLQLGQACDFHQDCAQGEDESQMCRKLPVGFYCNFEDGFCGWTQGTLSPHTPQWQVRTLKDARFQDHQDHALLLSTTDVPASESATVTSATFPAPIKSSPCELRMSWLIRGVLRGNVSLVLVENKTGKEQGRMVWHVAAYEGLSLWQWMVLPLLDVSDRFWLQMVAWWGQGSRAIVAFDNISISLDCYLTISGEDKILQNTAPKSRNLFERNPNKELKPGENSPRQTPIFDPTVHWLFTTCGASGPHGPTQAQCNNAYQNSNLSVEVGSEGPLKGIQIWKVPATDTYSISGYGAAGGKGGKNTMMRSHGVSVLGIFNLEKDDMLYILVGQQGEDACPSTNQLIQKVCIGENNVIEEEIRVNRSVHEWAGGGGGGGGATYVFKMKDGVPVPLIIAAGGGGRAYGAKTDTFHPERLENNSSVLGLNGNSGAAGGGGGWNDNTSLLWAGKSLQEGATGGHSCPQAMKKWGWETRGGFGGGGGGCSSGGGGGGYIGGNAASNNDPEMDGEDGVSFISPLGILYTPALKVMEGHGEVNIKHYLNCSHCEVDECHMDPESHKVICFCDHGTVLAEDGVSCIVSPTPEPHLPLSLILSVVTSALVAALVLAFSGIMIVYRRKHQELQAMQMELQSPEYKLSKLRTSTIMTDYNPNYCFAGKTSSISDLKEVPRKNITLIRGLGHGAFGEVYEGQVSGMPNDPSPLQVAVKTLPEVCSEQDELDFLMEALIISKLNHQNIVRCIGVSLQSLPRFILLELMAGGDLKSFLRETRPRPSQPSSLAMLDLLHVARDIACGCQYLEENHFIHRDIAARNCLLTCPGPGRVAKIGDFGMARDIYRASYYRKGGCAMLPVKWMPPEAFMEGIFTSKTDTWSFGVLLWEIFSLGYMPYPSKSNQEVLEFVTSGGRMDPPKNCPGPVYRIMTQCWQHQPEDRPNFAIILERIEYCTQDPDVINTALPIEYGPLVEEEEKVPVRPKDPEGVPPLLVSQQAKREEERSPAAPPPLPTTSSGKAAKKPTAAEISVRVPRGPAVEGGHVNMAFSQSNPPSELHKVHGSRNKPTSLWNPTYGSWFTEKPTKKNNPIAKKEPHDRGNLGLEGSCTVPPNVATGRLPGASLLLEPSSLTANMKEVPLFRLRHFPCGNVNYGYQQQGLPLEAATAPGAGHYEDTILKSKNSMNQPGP
# Sequence of PKD3 (O94806 whole entry, looked up): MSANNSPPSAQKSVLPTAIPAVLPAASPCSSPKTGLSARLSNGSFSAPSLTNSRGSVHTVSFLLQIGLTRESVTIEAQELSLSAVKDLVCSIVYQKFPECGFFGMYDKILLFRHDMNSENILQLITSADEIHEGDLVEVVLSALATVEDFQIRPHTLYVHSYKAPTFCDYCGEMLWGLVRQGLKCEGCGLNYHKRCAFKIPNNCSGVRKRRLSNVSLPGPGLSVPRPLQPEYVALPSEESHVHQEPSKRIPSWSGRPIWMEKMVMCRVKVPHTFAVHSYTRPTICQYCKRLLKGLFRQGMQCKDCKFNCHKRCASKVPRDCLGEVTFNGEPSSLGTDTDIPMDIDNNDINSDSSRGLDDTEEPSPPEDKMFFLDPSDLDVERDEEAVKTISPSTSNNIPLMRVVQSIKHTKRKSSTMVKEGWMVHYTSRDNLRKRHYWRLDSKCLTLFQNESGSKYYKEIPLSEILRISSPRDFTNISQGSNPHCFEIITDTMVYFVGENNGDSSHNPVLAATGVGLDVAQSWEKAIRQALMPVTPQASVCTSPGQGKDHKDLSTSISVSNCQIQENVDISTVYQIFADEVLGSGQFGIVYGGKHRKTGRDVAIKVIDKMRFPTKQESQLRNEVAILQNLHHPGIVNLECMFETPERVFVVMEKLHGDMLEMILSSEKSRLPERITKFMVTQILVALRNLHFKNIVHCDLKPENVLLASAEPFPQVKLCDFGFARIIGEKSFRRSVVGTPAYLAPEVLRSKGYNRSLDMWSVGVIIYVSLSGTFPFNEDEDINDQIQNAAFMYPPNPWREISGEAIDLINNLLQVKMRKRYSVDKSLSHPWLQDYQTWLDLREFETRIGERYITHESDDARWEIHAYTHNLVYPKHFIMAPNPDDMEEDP
# Sequence of PDHK4 (Q16654 whole entry): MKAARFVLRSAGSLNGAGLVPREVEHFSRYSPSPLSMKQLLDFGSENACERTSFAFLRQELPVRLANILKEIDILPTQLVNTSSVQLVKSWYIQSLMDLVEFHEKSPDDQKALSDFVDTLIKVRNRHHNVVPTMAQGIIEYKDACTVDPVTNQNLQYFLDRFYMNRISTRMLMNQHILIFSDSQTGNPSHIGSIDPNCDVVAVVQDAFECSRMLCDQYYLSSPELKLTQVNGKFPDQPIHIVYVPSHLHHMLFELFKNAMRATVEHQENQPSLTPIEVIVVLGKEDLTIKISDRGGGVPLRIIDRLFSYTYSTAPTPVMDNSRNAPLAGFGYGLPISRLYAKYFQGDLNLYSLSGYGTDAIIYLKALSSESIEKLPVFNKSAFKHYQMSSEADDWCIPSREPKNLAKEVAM
# Sequence of JNK2 (P45984 whole entry): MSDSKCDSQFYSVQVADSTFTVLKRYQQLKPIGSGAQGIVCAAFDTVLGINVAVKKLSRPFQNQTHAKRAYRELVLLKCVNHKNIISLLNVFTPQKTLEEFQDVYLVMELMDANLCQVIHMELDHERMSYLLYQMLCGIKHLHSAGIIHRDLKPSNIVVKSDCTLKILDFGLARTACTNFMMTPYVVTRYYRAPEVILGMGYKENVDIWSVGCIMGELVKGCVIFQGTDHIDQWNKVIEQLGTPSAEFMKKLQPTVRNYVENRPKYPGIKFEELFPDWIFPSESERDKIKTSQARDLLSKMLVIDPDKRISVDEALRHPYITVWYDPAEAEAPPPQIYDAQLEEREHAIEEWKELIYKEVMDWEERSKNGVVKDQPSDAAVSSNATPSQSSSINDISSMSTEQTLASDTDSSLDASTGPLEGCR
# Sequence of PKACγ (P22612 whole entry): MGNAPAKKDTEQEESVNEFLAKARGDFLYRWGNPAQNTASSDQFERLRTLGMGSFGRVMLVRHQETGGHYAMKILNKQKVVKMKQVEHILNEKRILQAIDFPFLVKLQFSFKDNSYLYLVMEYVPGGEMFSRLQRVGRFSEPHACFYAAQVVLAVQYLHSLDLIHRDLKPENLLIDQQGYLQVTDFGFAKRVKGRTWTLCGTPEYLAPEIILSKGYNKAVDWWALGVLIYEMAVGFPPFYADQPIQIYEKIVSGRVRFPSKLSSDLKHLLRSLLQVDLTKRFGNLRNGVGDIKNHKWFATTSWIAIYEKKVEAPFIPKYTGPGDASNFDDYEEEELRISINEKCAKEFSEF
smiles,measurement,setting,value
"CCC1(c2ccccc2)C2=C(CC(C)(C)CC2=O)Nc2ncsc21 (stereo not shown) [Compound 1, 9-Ethyl-6,6-dimethyl-9-phenyl-5,6,7,9-tetrahydrothiazolo[4,5-b]quinolin-8(4H)-one]",inhibition at 10 µM,p70S6K,2.9%
same,inhibition at 10 µM,FYN(isoform b),2.4%
same,inhibition at 10 µM,AKT3,-4.5%
same,inhibition at 10 µM,MST2,4.2%
same,inhibition at 10 µM,ROCK2,-3.1%
same,inhibition at 10 µM,IKKε,4.2%
same,inhibition at 10 µM,KDR,0.2%
same,inhibition at 10 µM,EPHB4,5.3%
same,inhibition at 10 µM,CK1γ3,1.5%
same,inhibition at 10 µM,MRCKα,3.3%
same,inhibition at 10 µM,EPHA5,9.3%
same,inhibition at 10 µM,NEK6,20.9%
same,% Inhibition at 10 μM of the test compound,MAP2K1_Cascade,−3.2%
same,inhibition at 10 µM,NPM1-ALK,-7.5%
same,inhibition at 10 µM,MET,8.9%
same,inhibition at 10 µM,DAPK1,-8.7%
same,inhibition at 10 µM,Erk5,-0.6%
same,inhibition at 10 µM,p38α,1.1%
same,inhibition at 10 µM,MARK1,-1.7%
same,inhibition at 10 µM,PAK4,17%
same,inhibition at 10 µM,TYRO3,3.8%
same,inhibition at 10 µM,PGK,0.9%
same,inhibition at 10 µM,PEK,-6%
same,inhibition at 10 µM,ALK(F1174L),1.8%
same,% Inhibition at 10 μM of the test compound,MAP3K1_Cascade,−1.0%
same,inhibition at 10 µM,YES(T348I),13.5%
same,inhibition at 10 µM,PDHK4,8.3%
same,inhibition at 10 µM,PKACγ,-5.6%
same,inhibition at 10 µM,CDK5/p25,41.2%
same,inhibition at 10 µM,DDR1,1.4%
same,inhibition at 10 µM,JNK2,-1.5%
same,inhibition at 10 µM,LCK,1.7%
same,inhibition at 10 µM,CAMK1α,-2.6%
same,inhibition at 10 µM,INSR,4.1%
same,inhibition at 10 µM,CLK1,-7.2%
same,IC50,GSK3β; GSK3β,137 nM
same,inhibition at 10 µM,GSK3β; [1],97.7%
same,IC50,GSK3α,31.3 nM
same,inhibition at 10 µM,GSK3α; [1],98%
same,inhibition at 10 µM,SGK2,-8.7%
same,inhibition at 10 µM,PKD3,2.7%
same,inhibition at 10 µM,NEK2,0.9%
same,inhibition at 10 µM,KIT(D816E),-0.2%

# — patent publication US11203601B2, “Tricyclic compounds as glycogen synthase kinase 3 (GSK3) inhibitors and uses thereof” (The Broad Institute, Inc., priority 2017, dated 2021)
